Read-outs that look alike come from different tables or passages of the source. Values belong to the compound of their own block, whether it stands above or below them.
Assays:
[1] = pKa of the pyridine nitrogen; format: physicochemical; settings: measured at Cyprotex
Procedure: [32] pKa measurement was conducted at Cyprotex according to their published protocol: .

[2] = Caco-2 Papp determination; format: in vitro ADME, human
CYP450 2C19 = CYP450 2C19 (Homo sapiens, UniProt P33261); test: CYP450 inhibition; format: in vitro ADME
Sequence of CYP450 2C19 (P33261 whole entry): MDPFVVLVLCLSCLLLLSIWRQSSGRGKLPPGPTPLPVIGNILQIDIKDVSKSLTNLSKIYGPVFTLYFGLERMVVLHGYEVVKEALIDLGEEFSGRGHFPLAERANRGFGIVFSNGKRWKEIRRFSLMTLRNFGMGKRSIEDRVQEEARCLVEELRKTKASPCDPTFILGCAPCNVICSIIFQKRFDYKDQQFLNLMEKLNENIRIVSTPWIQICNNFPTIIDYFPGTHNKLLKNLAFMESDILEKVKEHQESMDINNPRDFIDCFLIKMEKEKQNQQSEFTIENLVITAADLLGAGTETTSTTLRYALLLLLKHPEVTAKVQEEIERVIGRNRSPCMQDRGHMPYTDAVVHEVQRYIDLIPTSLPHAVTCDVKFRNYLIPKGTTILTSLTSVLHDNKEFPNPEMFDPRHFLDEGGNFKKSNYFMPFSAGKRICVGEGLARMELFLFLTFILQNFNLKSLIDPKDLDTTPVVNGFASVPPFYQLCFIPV

CYP450 2C9 = CYP450 2C9 (Homo sapiens, UniProt P11712); test: CYP450 inhibition; format: in vitro ADME
Sequence of CYP450 2C9 (P11712 whole entry): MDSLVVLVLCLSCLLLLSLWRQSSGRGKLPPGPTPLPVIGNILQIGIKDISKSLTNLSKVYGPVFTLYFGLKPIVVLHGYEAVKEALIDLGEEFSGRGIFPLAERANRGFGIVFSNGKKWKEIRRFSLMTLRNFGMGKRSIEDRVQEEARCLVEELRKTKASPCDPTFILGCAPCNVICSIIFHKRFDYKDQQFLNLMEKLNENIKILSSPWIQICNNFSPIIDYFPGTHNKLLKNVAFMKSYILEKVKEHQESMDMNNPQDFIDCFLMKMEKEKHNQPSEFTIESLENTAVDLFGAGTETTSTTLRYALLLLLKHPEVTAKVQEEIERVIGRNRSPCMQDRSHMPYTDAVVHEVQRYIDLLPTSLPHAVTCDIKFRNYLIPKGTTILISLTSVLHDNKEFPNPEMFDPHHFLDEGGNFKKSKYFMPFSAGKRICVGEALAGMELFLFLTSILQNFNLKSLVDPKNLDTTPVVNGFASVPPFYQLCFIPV

CYP450 2D6 = CYP450 2D6 (Homo sapiens, UniProt P10635); test: CYP450 inhibition; format: in vitro ADME
Sequence of CYP450 2D6 (P10635 whole entry): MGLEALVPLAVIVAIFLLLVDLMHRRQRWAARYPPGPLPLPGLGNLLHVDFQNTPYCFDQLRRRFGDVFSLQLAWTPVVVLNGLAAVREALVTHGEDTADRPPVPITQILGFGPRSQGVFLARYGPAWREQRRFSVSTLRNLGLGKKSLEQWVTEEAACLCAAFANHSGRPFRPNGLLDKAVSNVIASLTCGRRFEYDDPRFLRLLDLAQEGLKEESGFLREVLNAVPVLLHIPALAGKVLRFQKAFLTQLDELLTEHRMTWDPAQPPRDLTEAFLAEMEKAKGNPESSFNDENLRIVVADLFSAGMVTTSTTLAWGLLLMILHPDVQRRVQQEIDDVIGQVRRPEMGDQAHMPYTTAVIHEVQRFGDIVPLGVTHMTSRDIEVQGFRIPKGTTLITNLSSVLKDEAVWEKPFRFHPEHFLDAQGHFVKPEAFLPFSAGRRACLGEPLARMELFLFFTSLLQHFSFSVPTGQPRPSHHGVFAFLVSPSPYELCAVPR

CYP450 1A2 = CYP450 1A2 (Homo sapiens, UniProt P05177); test: CYP450 inhibition
Sequence of CYP450 1A2 (P05177 whole entry): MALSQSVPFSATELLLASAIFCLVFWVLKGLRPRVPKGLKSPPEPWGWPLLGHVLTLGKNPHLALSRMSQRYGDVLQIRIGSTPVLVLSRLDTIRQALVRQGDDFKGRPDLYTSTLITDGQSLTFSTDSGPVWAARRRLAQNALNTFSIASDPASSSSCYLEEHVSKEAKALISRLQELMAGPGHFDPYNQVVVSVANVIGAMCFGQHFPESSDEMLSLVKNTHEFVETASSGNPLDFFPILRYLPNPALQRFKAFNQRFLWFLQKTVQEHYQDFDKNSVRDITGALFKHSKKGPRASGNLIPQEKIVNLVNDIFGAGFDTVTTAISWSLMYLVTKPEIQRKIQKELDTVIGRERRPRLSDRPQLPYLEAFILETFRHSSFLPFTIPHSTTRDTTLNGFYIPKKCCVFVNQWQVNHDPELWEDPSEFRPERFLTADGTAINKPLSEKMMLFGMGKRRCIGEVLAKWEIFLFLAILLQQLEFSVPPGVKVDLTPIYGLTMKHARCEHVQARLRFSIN

CYP450 2B8 = CYP450 2B8 (Homo sapiens, UniProt P20813); test: CYP450 inhibition
Sequence of CYP450 2B8 (P20813 whole entry): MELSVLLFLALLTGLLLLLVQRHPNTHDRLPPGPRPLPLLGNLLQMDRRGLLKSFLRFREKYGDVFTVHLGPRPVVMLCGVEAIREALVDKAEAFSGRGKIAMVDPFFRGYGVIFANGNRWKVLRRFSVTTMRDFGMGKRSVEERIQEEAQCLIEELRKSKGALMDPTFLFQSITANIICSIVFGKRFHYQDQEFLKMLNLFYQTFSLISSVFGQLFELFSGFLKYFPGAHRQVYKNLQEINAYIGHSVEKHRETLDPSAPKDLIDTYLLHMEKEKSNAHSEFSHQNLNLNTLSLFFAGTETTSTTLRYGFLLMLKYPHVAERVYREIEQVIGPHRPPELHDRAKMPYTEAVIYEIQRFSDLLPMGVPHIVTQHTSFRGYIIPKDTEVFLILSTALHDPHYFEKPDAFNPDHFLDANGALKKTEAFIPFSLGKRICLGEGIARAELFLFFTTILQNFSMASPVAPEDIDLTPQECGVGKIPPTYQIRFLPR

In vivo mouse PK = settings: iv dosing
Clint determination [3] = format: in vitro ADME; settings: mouse, microsomes, pH 7.4, mouse microsomes, read-out: Clint (μL/min/mg) Mouse
Clint determination [4] = format: in vitro ADME; settings: human, microsomes, pH 7.4, human microsomes, read-out: Clint (μL/min/mg) Human
Clint determination [5] = format: in vitro ADME; settings: rat, microsomes, pH 7.4, rat microsomes, read-out: Clint (μL/min/mg) Rat
[6] = Aqueous (thermodynamic) solubility; format: physicochemical; settings: phosphate buffer pH 7.4

microsomal CLint at 1 μM (Clint determination [3]): > 1000 µL/min/mg
Compound: O=C1NCCC12CCN(c1c(Cl)cncc1-c1ccc(N3CCCCC3)cc1)CC2 [Compound 65]

microsomal CLint at 1 μM (Clint determination [4]): 100 µL/min/mg
Compound: O=C1NCCC12CCN(c1c(Cl)cncc1-c1ccc(-c3ccncc3)cc1)CC2 [Compound 69]

solubility [6]: < 1 µg/mL
Compound: Cn1cc(-c2ccc(-c3cncc(Cl)c3N3CCC4(CC3)CC(=O)NC4=O)cc2)cn1 [Compound 81, 8-(3-Chloro-5-(4-(1-methyl-1H-pyrazol-4-yl)phenyl)pyridin-4-yl)-2,8-diazaspiro[4.5]decane-1,3-dione]

Further lines, the compound ahead of its results:

Compound: c1cc(N2CCCCC2)ccn1 [4-(piperidin-1-yl)pyridine]
pKa [1]: 9.42

Compound: NC(=O)C1CCN(c2c(Cl)cncc2Cl)CC1 [Compound 9, 1-(3,5-Dichloropyridin-4-yl)piperidine-4-carboxamide]
Caco-2 efflux (efflux ratio, ER) [2]: no efflux
Papp at 2 h, 1 μM ([2]; human, Caco-2, 1 μM, pH 7.4): 36 ×10⁻⁶ cm/s
IC50 (CYP450 2C19): > 20 µM
IC50 (CYP450 2C9): > 20 µM
IC50 (CYP450 2D6): > 20 µM
IC50 (CYP450 1A2): > 20 µM
IC50 (CYP450 2B8): > 20 µM

Compound: NC(=O)C1CCN(c2c(Cl)cncc2-c2ccc(N3CCOCC3)cc2)CC1 [Compound 38, 1-(3-Chloro-5-(4-morpholin-4-ylphenyl)pyridin-4-yl)piperidine-4-carboxamide]
in vivo clearance (In vivo mouse PK): greater than liver blood flow

Compound: O=C1NCCC12CCN(c1c(Cl)cncc1-c1ccc(N3CCOCC3)cc1)C2 (centres unmarked) [Compound 52]
microsomal CLint at 1 μM (Clint determination [3]): 827 µL/min/mg
microsomal CLint at 1 μM (Clint determination [4]): 335 µL/min/mg

Compound: O=C1CC2(CCN(c3c(Cl)cncc3-c3ccc(N4CCOCC4)cc3)CC2)C(=O)N1 [Compound 54, 8-(3-Chloro-5-(4-morpholin-4-ylphenyl)pyridin-4-yl)-2,8-diazaspiro[4.5]decan-1,3-dione]
microsomal CLint at 1 μM (Clint determination [3]): 54 µL/min/mg
microsomal CLint at 1 μM (Clint determination [5]): 23 µL/min/mg
microsomal CLint at 1 μM (Clint determination [4]): 67 µL/min/mg

From paper PMC4767141, “Discovery of Potent, Orally Bioavailable, Small-Molecule Inhibitors of WNT Signaling from a Cell-Based Pathway Screen” (Journal of Medicinal Chemistry, 2015)
